These results are taken from patent US20260256797A1, “NOVEL INDENONE DERIVATIVES AND USES THEREOF” (AMYLOID SOLUTION INC., priority 2022, published 2026).

One experiment concerns the target T1, Aβ1-42 (Homo sapiens, UniProt P05067).
T1 construct: dissolving Aβ1-42 or Tau-RD3 (Tau repeat domain 3) monomer in DMSO
As to the kind of experiment: Amyloid-beta (Aβ) disaggregation test by thioflavin-T assay. Format: biochemical. To be noted: 50 μM Aβ1-42 aggregated 24 hours, then compound 0-500 μM for 48 hours at 37° C. How it is done: (§1) Each compound was dissolved in DMSO to a concentration of 10 mM. Subsequently, the compound was diluted with 6% DMSO (in DW) and used.
(§2) Specifically, amyloid-beta and tau solutions were prepared by dissolving Aβ1-42 or Tau-RD3 (Tau repeat domain 3) monomer in DMSO to a concentration of 10 mM. Thereafter, each solution was diluted with DW to a concentration of 100 μM and stored on ice. Meanwhile, thioflavin-T was dissolved in 50 mM glycine buffer (pH 8.5) to a concentration of 5 mM. Thereafter, the resulting solution was diluted with 50 mM glycine buffer (pH 8.5) to a concentration of 5 μM and stored in a dark room while light was blocked.
(§3) Each of the amyloid-beta and tau solutions prepared according to Experimental Example 1.1 was added to a 1.5 mL microcentrifuge tube to a concentration of 50 μM or 35 µM, and then a reaction was allowed to occur therebetween at 37° C. for 24 hours. Each of the 1.5 mL microcentrifuge tubes in which amyloid-beta aggregation and tau aggregation had been completed was treated with each compound at a concentrated of 500 μM to 0 μM through serial dilution, and then a further reaction was allowed to occur therebetween at 37° C. for 48 hours. 25 μL of the reaction solution in which the reaction had been completed was added to each well of a 96-well plate for fluorescence analysis, and 75 μL of the previously prepared thioflavin-T solution was added to each well. After a reaction was allowed to occur at room temperature in the dark for 5 minutes, fluorescence values were measured at excitation 450 nm and emission 485 nm by using a multi-mode microplate reader.
(§4) The fluorescence value of a group (control) treated with amyloid-beta or tau alone, followed by aggregation for 72 hours was converted into a percentage value and expressed as 100, and amyloid-beta and tau aggregates, in which aggregation had been completed upon reaction for 24 hours, were treated with each compound at each concentration and a further reaction was allowed to occur therebetween for 48 hours, and then fluorescence values thereof were measured and converted into relative values. The results thereof are illustrated in FIGS. 1 to 6 and 7 to 12. In addition, EC50 values of the compounds of the present disclosure for amyloid-beta and tau, respectively are summarized in Table 1.

Experiment [1] addresses Tau-RD3 (Tau repeat domain 3) (Homo sapiens, UniProt P10636). Nature of the experiment: Tau disaggregation test by thioflavin-T assay. The conditions noted are these: 35 μM Tau-RD3 aggregated 24 hours, then compound 0-500 μM for 48 hours at 37° C. In kind it is biochemical. On the procedure:
as §1, §2, §3, §4

In general, EC50 refers to the concentration needed to bring the measured effect to its halfway point. Low readings indicate greater potency, high ones weaker potency.

T1 sequence (P05067 672-713 limits assumed): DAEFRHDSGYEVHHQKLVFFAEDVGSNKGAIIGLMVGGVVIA
Tau-RD3 (Tau repeat domain 3), sequence (P10636 623-653 limits assumed): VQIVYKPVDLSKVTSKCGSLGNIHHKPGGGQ

Turning to `COc1ccc(OCCOc2ccc3c(c2)C(=O)C(c2ccc(C(F)(F)F)cc2)=C3c2ncsc2C)cc1OC` [Compound 33, 6-(2-(3,4-dimethoxyphenoxy)ethoxy)-3-(5-methylthiazol-4-yl)-2-(4-(trifluoromethyl)phenyl)-1H-inden-1-one], the EC50 is 10.4 µM at Aβ1-42 and 145 µM in experiment [1].
On the same counts, the results for `Cc1scnc1C1=C(c2ccc(C(F)(F)F)cc2)C(=O)c2cc(OCCOc3ccc4c(c3)OCO4)ccc21` [Compound 34, 6-(2-(benzo[d][1,3]dioxol-5-yloxy)ethoxy)-3-(5-methylthiazol-4-yl)-2-(4-(trifluoromethyl)phenyl)-1H-inden-1-one] are 31.2 µM and 426 µM.
On the same counts, the results for `Cc1scnc1C1=C(c2ccc(C(F)(F)F)cc2)C(=O)c2cc(OCCOc3ccncc3)ccc21` [Compound 35, 3-(5-methylthiazol-4-yl)-6-(2-(pyridin-4-yloxy)ethoxy)-2-(4-(trifluoromethyl)phenyl)-1H-inden-1-one] are 1 µM and more than 500 µM.
On the same counts, the results for `Cc1scnc1C1=C(c2cccs2)C(=O)c2cc(OCCOc3ccc(Cl)c(Cl)c3)ccc21` [Compound 36, 6-(2-(3,4-dichlorophenoxy)ethoxy)-3-(5-methylthiazol-4-yl)-2-(thiophen-2-yl)-1H-inden-1-one] are 26 µM and more than 500 µM.
Turning to `Cc1scnc1C1=C(c2cccs2)C(=O)c2cc(OCCOc3ccc(F)c(F)c3)ccc21` [Compound 37, 6-(2-(3,4-difluorophenoxy)ethoxy)-3-(5-methylthiazol-4-yl)-2-(thiophen-2-yl)-1H-inden-1-one], the EC50 on Aβ1-42 is 46.3 µM; in experiment [1] it was 470 µM.
The like results for `O=C1C(c2cccnc2)=C(c2ccoc2)c2ccc(OCCc3ccccc3)cc21` [Compound 38, 3-(furan-3-yl)-6-phenethoxy-2-(pyridin-3-yl)-1H-inden-1-one] were, in that order, 3 µM and 120 µM.
On the same counts, the results for `O=C1C(c2cccnc2)=C(c2ccoc2)c2ccc(OCCCCc3ccccc3)cc21` [Compound 39, 3-(furan-3-yl)-6-(4-phenylbutoxy)-2-(pyridin-3-yl)-1H-inden-1-one] are 2.6 µM and 10.7 µM.
The like results for `O=C1C(c2cccnc2)=C(c2ccoc2)c2ccc(OCOCc3ccccc3)cc21` [Compound 40, 6-((benzyloxy)methoxy)-3-(furan-3-yl)-2-(pyridin-3-yl)-1H-inden-1-one] were, in that order, 2.1 µM and 67.1 µM.
Take `O=C1C(c2cccnc2)=C(c2ccoc2)c2ccc(OCCOc3ccccc3)cc21` [Compound 41, 3-(furan-3-yl)-6-(2-phenoxyethoxy)-2-(pyridin-3-yl)-1H-inden-1-one]: the EC50 was found to be 1.1 µM at Aβ1-42 and 4.8 µM in experiment [1].
On the same counts, the results for `COc1ccc(OCCOc2ccc3c(c2)C(=O)C(c2cccnc2)=C3c2ccoc2)cc1` [Compound 42, 3-(furan-3-yl)-6-(2-(4-methoxyphenoxy)ethoxy)-2-(pyridin-3-yl)-1H-inden-1-one] are 31.2 µM and 124 µM.
On the same counts, the results for `COc1ccc(OCCOc2ccc3c(c2)C(=O)C(c2cccnc2)=C3c2ccoc2)cc1OC` [Compound 43, 6-(2-(3,4-dimethoxyphenoxy)ethoxy)-3-(furan-3-yl)-2-(pyridin-3-yl)-1H-inden-1-one] are 1.8 µM and 2.8 µM.
The like results for `O=C1C(c2cccnc2)=C(c2ccoc2)c2ccc(OCCOc3ccc4c(c3)OCO4)cc21` [Compound 44, 6-(2-(benzo[d][1,3]dioxol-5-yloxy)ethoxy)-3-(furan-3-yl)-2-(pyridin-3-yl)-1H-inden-1-one] were, in that order, 1.8 µM and 2.7 µM.
`O=C1C(c2cccnc2)=C(c2ccoc2)c2ccc(OCCOc3ccncc3)cc21` [Compound 45, 3-(furan-3-yl)-2-(pyridin-3-yl)-6-(2-(pyridin-4-yloxy)ethoxy)-1H-inden-1-one]: the EC50 on Aβ1-42 worked out at 9.1 µM; in experiment [1] it was 11.9 µM.
The like results for `O=C1C(c2cccnc2)=C(c2ccoc2)c2ccc(OCCOc3ccc(Cl)c(Cl)c3)cc21` [Compound 46, 6-(2-(3,4-dichlorophenoxy)ethoxy)-3-(furan-3-yl)-2-(pyridin-3-yl)-1H-inden-1-one] were, in that order, 1.4 µM and 2.1 µM.
The like results for `O=C1C(c2cccnc2)=C(c2ccoc2)c2ccc(OCCOc3ccc(F)c(F)c3)cc21` [Compound 47, 6-(2-(3,4-difluorophenoxy)ethoxy)-3-(furan-3-yl)-2-(pyridin-3-yl)-1H-inden-1-one] were, in that order, 1.7 µM and 57 µM.
On the same counts, the results for `CN(C)c1ccc(OCCOc2ccc3c(c2)C(=O)C(c2cccnc2)=C3c2ccoc2)cc1` [Compound 48, 6-(2-(4-(dimethylamino)phenoxy)ethoxy)-3-(furan-3-yl)-2-(pyridin-3-yl)-1H-inden-1-one] are 2.3 µM and 4.1 µM.
With `CC(C)c1ccc(OCCOc2ccc3c(c2)C(=O)C(c2cccnc2)=C3c2ccoc2)cc1` [Compound 49, 3-(furan-3-yl)-6-(2-(4-isopropylphenoxy)ethoxy)-2-(pyridin-3-yl)-1H-inden-1-one], the EC50 at Aβ1-42 came out at 1.5 µM; in experiment [1] it was 1.9 µM.
On the same counts, the results for `COc1ccc(COCOc2ccc3c(c2)C(=O)C(c2cccnc2)=C3c2ccoc2)cc1` [Compound 50, 3-(furan-3-yl)-6-(((4-methoxybenzyl)oxy)methoxy)-2-(pyridin-3-yl)-1H-inden-1-one] are 2.3 µM and 19.9 µM.
